Assay: recombinant UMI read abundance after kanamycin selection (control-corrected) (log10(CPM+1)); higher = more efficient recombination; extreme values may be limits of the assay; sequences stand for … in AGTGCAGAGAAAATCGGCCAGTTTTCTCTGCCTGCAGTCCGCATGCCGTGGGACCCCTTGGGTTCTAACCTGTTGCCTAGATTTATGCAGCGGACTGCCTTTCTCCCAAAGTGATAAACCGG…AGGTTGGTTTCACT; site = the 11-nt donor
Outline: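 Sequenced counts of recombinant UMIs were turned into CPM, averaged across replicates and scaled with control-derived factors. The reported figure is log10(CPM+1). Those UMIs, each 12 nt long, tagged donor and donor-binding-loop pairs on a plasmid with a promoterless kanamycin gene, screened as a pool in Escherichia coli with IPTG (0.07 mM) plus kanamycin or without selection.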
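Further: IS621 bridge recombinase in Escherichia coli cells against a fixed T5 target plasmid.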

## GGTACGTCATGGACCGGTTTTCCCGGTAATCCGTATTTGCT (site GGTACGTCTAC)
  recombinant UMI read abundance (log10): 0.0226

## GGTACGTCATGGACCGGTTTTCCCGGTAATCCGTATTTGCT (site GGTACGTCTAG)
  recombinant UMI read abundance (log10): 2

## GGTACGTCATGGACCGGTTTTCCCGGTAATCCGTATTTGCT (site GGTACGTCTAT)
  recombinant UMI read abundance (log10): 0.00579

## GGTACGTCATGGACCGGTTTTCCCGGTAATCCGTATTTGGT (site GGTACGTCTAA)
  recombinant UMI read abundance (log10): 0.00807

## GGTACGTCATGGACCGGTTTTCCCGGTAATCCGTATTTGGT (site GGTACGTCTAC)
  recombinant UMI read abundance (log10): 1.33

## GGTACGTCATGGACCGGTTTTCCCGGTAATCCGTATTTGGT (site GGTACGTCTAG)
  recombinant UMI read abundance (log10): 0

## GGTACGTCATGGACCGGTTTTCCCGGTAATCCGTATTTGGT (site GGTACGTCTAT)
  recombinant UMI read abundance (log10): 0.339

## GGTACGTCATGGACCGGTTTTCCCGGTAATCCGTATTTGTG (site GGTACGTCTAA)
  recombinant UMI read abundance (log10): 0.0133

## GGTACGTCATGGACCGGTTTTCCCGGTAATCCGTATTTGTG (site GGTACGTCTCA)
  recombinant UMI read abundance (log10): 0.338

## GGTACGTCATGGACCGGTTTTCCCGGTAATCCGTATTTGTG (site GGTACGTCTGA)
  recombinant UMI read abundance (log10): 0

## GGTACGTCATGGACCGGTTTTCCCGGTAATCCGTATTTGTG (site GGTACGTCTTA)
  recombinant UMI read abundance (log10): 0

## GGTACGTCATGGACCGGTTTTCCCGGTAATCCGTATTTGTT (site AGTACGTCTAA)
  recombinant UMI read abundance (log10): 0.0112

## GGTACGTCATGGACCGGTTTTCCCGGTAATCCGTATTTGTT (site CGTACGTCTAA)
  recombinant UMI read abundance (log10): 0

## GGTACGTCATGGACCGGTTTTCCCGGTAATCCGTATTTGTT (site GATACGTCTAA)
  recombinant UMI read abundance (log10): 0.00543

## GGTACGTCATGGACCGGTTTTCCCGGTAATCCGTATTTGTT (site GCTACGTCTAA)
  recombinant UMI read abundance (log10): 0.0161

## GGTACGTCATGGACCGGTTTTCCCGGTAATCCGTATTTGTT (site GGAACGTCTAA)
  recombinant UMI read abundance (log10): 0.0323

## GGTACGTCATGGACCGGTTTTCCCGGTAATCCGTATTTGTT (site GGCACGTCTAA)
  recombinant UMI read abundance (log10): 0.0185

## GGTACGTCATGGACCGGTTTTCCCGGTAATCCGTATTTGTT (site GGGACGTCTAA)
  recombinant UMI read abundance (log10): 0.0133

## GGTACGTCATGGACCGGTTTTCCCGGTAATCCGTATTTGTT (site GGTAAGTCTAA)
  recombinant UMI read abundance (log10): 0

## GGTACGTCATGGACCGGTTTTCCCGGTAATCCGTATTTGTT (site GGTACATCTAA)
  recombinant UMI read abundance (log10): 0.535

## GGTACGTCATGGACCGGTTTTCCCGGTAATCCGTATTTGTT (site GGTACCTCTAA)
  recombinant UMI read abundance (log10): 0.0198

## GGTACGTCATGGACCGGTTTTCCCGGTAATCCGTATTTGTT (site GGTACGACTAA)
  recombinant UMI read abundance (log10): 0.0066

## GGTACGTCATGGACCGGTTTTCCCGGTAATCCGTATTTGTT (site GGTACGCCTAA)
  recombinant UMI read abundance (log10): 0.0208

## GGTACGTCATGGACCGGTTTTCCCGGTAATCCGTATTTGTT (site GGTACGGCTAA)
  recombinant UMI read abundance (log10): 0.0154

## GGTACGTCATGGACCGGTTTTCCCGGTAATCCGTATTTGTT (site GGTACGTCTAA)
  recombinant UMI read abundance (log10): 0.31

## GGTACGTCATGGACCGGTTTTCCCGGTAATCCGTATTTGTT (site GGTACGTCTAC)
  recombinant UMI read abundance (log10): 0

## GGTACGTCATGGACCGGTTTTCCCGGTAATCCGTATTTGTT (site GGTACGTCTAG)
  recombinant UMI read abundance (log10): 0

## GGTACGTCATGGACCGGTTTTCCCGGTAATCCGTATTTGTT (site GGTACGTCTAT)
  recombinant UMI read abundance (log10): 0

## GGTACGTCATGGACCGGTTTTCCCGGTAATCCGTATTTGTT (site GGTACGTCTCA)
  recombinant UMI read abundance (log10): 0.0191

## GGTACGTCATGGACCGGTTTTCCCGGTAATCCGTATTTGTT (site GGTACGTCTGA)
  recombinant UMI read abundance (log10): 0

## GGTACGTCATGGACCGGTTTTCCCGGTAATCCGTATTTGTT (site GGTACGTCTTA)
  recombinant UMI read abundance (log10): 0.0065

## GGTACGTCATGGACCGGTTTTCCCGGTAATCCGTATTTGTT (site GGTACTTCTAA)
  recombinant UMI read abundance (log10): 0

## GGTACGTCATGGACCGGTTTTCCCGGTAATCCGTATTTGTT (site GGTAGGTCTAA)
  recombinant UMI read abundance (log10): 0.00929

## GGTACGTCATGGACCGGTTTTCCCGGTAATCCGTATTTGTT (site GGTATGTCTAA)
  recombinant UMI read abundance (log10): 0.00457

## GGTACGTCATGGACCGGTTTTCCCGGTAATCCGTATTTGTT (site GGTCCGTCTAA)
  recombinant UMI read abundance (log10): 0.0113

## GGTACGTCATGGACCGGTTTTCCCGGTAATCCGTATTTGTT (site GGTGCGTCTAA)
  recombinant UMI read abundance (log10): 0.00982

## GGTACGTCATGGACCGGTTTTCCCGGTAATCCGTATTTGTT (site GGTTCGTCTAA)
  recombinant UMI read abundance (log10): 0

## GGTACGTCATGGACCGGTTTTCCCGGTAATCCGTATTTGTT (site GTTACGTCTAA)
  recombinant UMI read abundance (log10): 0.0263

## GGTACGTCATGGACCGGTTTTCCCGGTAATCCGTATTTGTT (site TGTACGTCTAA)
  recombinant UMI read abundance (log10): 0.0329

## GGTACTTCATGGACCGGTTTTCCCGGTAATCCGTATTTGAT (site GGTACTTCTAT)
  recombinant UMI read abundance (log10): 0.4

## GGTAGAACATGGACCGGTTTTCCCGGTAATCCGTATTTGTA (site GGTAGAACTTA)
  recombinant UMI read abundance (log10): 1.39

## GGTAGCGCATGGACCGGTTTTCCCGGTAATCCGTATTTGTT (site GGTAGCGCTAA)
  recombinant UMI read abundance (log10): 1.5

## GGTCAAACATGGACCGGTTTTCCCGGTAATCCGTATTTGTA (site GGTCAAACTTA)
  recombinant UMI read abundance (log10): 0.645

## GGTCAAACATGGACCGGTTTTCCCGGTAATCCGTATTTGTA (site GGTCCAACTTA)
  recombinant UMI read abundance (log10): 0.0193

## GGTCAAACATGGACCGGTTTTCCCGGTAATCCGTATTTGTA (site GGTCGAACTTA)
  recombinant UMI read abundance (log10): 0.00424

## GGTCAAACATGGACCGGTTTTCCCGGTAATCCGTATTTGTA (site GGTCTAACTTA)
  recombinant UMI read abundance (log10): 0.0103

## GGTCACGCATGGACCGGTTTTCCCGGTAATCCGTATTTGTC (site GGTCACGCTGA)
  recombinant UMI read abundance (log10): 2.56

## GGTCAGTCATGGACCGGTTTTCCCGGTAATCCGTATTTGGA (site GGTCAGTCTTC)
  recombinant UMI read abundance (log10): 0.503

## GGTCCAACATGGACCGGTTTTCCCGGTAATCCGTATTTGAT (site GGTCCAACTAT)
  recombinant UMI read abundance (log10): 0

## GGTCCAACATGGACCGGTTTTCCCGGTAATCCGTATTTGGA (site GGTCCAACTTA)
  recombinant UMI read abundance (log10): 0.00455

## GGTCCAACATGGACCGGTTTTCCCGGTAATCCGTATTTGGA (site GGTCCAACTTC)
  recombinant UMI read abundance (log10): 0.0919

## GGTCCAACATGGACCGGTTTTCCCGGTAATCCGTATTTGGA (site GGTCCAACTTG)
  recombinant UMI read abundance (log10): 0.0106

## GGTCCAACATGGACCGGTTTTCCCGGTAATCCGTATTTGGA (site GGTCCAACTTT)
  recombinant UMI read abundance (log10): 0.00506

## GGTCCAACATGGACCGGTTTTCCCGGTAATCCGTATTTGTC (site GGTCCAACTAA)
  recombinant UMI read abundance (log10): 0.015

## GGTCCAACATGGACCGGTTTTCCCGGTAATCCGTATTTGTC (site GGTCCAACTCA)
  recombinant UMI read abundance (log10): 0.00327

## GGTCCAACATGGACCGGTTTTCCCGGTAATCCGTATTTGTC (site GGTCCAACTGA)
  recombinant UMI read abundance (log10): 0

## GGTCCAACATGGACCGGTTTTCCCGGTAATCCGTATTTGTC (site GGTCCAACTTA)
  recombinant UMI read abundance (log10): 0.035

## GGTCCACCATGGACCGGTTTTCCCGGTAATCCGTATTTGTA (site GGTCCAACTTA)
  recombinant UMI read abundance (log10): 0.0242

## GGTCCACCATGGACCGGTTTTCCCGGTAATCCGTATTTGTA (site GGTCCACCTTA)
  recombinant UMI read abundance (log10): 0.0126

## GGTCCACCATGGACCGGTTTTCCCGGTAATCCGTATTTGTA (site GGTCCAGCTTA)
  recombinant UMI read abundance (log10): 0.0357

## GGTCCACCATGGACCGGTTTTCCCGGTAATCCGTATTTGTA (site GGTCCATCTTA)
  recombinant UMI read abundance (log10): 0.0355

## GGTCCAGCATGGACCGGTTTTCCCGGTAATCCGTATTTGAA (site GGTCCAGCTTT)
  recombinant UMI read abundance (log10): 0.307

## GGTCCAGCATGGACCGGTTTTCCCGGTAATCCGTATTTGTA (site GGTCCAACTTA)
  recombinant UMI read abundance (log10): 0

## GGTCCAGCATGGACCGGTTTTCCCGGTAATCCGTATTTGTA (site GGTCCACCTTA)
  recombinant UMI read abundance (log10): 0.00451

## GGTCCAGCATGGACCGGTTTTCCCGGTAATCCGTATTTGTA (site GGTCCAGCTTA)
  recombinant UMI read abundance (log10): 1.56

## GGTCCAGCATGGACCGGTTTTCCCGGTAATCCGTATTTGTA (site GGTCCATCTTA)
  recombinant UMI read abundance (log10): 0.0161

## GGTCCGTCATGGACCGGTTTTCCCGGTAATCCGTATTTGTT (site GGTACGTCTAA)
  recombinant UMI read abundance (log10): 0.00692

## GGTCCGTCATGGACCGGTTTTCCCGGTAATCCGTATTTGTT (site GGTCCGTCTAA)
  recombinant UMI read abundance (log10): 0.00423

## GGTCCGTCATGGACCGGTTTTCCCGGTAATCCGTATTTGTT (site GGTGCGTCTAA)
  recombinant UMI read abundance (log10): 0.0122

## GGTCCGTCATGGACCGGTTTTCCCGGTAATCCGTATTTGTT (site GGTTCGTCTAA)
  recombinant UMI read abundance (log10): 0.0141

## GGTCGAACATGGACCGGTTTTCCCGGTAATCCGTATTTGTA (site GGTCAAACTTA)
  recombinant UMI read abundance (log10): 0.0946

## GGTCGAACATGGACCGGTTTTCCCGGTAATCCGTATTTGTA (site GGTCCAACTTA)
  recombinant UMI read abundance (log10): 0.00781

## GGTCGAACATGGACCGGTTTTCCCGGTAATCCGTATTTGTA (site GGTCGAACTTA)
  recombinant UMI read abundance (log10): 0.761

## GGTCGAACATGGACCGGTTTTCCCGGTAATCCGTATTTGTA (site GGTCTAACTTA)
  recombinant UMI read abundance (log10): 0.00734

## GGTGACCCATGGACCGGTTTTCCCGGTAATCCGTATTTGCA (site GGTGACCCTTG)
  recombinant UMI read abundance (log10): 0.706

Source: the supplement of paper PMC11208160
